Assay [1] can be described thus: Luminescence Cell-Based Dose Confirmation HTS to Identify Inhibitors of Platelet Dense Granule Release. [Related pubchem assays: 1663 (Primary HTS), 1678 (Summary of Project)]. It counts as functional.
Assay [2] deals with Luciferin 4-monooxygenase (Photinus pyralis, UniProt P08659). The assay can be described thus: firefly luciferase enzyme inhibitors, dose response, biochemical, luminescence (AID 1891).
The target in assay [3] is T1, Ubiquitin-conjugating enzyme E2 N (Homo sapiens, UniProt P61088).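 Further: Dose-response confirmation in a TR-FRET assay detecting UBC13-driven polyubiquitin chain formation, inhibition measured.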
T1 sequence (P61088 whole entry): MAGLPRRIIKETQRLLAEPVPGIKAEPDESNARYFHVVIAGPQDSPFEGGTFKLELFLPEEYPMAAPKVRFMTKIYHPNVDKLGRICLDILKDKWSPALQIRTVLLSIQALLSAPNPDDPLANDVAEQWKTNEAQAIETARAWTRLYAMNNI
It counts as functional.

A further assay has as its target T2, Cytochrome P450 1A2 (Homo sapiens, UniProt P05177).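 Further: PubChem cytochrome P450 panel assay, CYP1A2 panel member.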
T2 sequence (P05177 whole entry): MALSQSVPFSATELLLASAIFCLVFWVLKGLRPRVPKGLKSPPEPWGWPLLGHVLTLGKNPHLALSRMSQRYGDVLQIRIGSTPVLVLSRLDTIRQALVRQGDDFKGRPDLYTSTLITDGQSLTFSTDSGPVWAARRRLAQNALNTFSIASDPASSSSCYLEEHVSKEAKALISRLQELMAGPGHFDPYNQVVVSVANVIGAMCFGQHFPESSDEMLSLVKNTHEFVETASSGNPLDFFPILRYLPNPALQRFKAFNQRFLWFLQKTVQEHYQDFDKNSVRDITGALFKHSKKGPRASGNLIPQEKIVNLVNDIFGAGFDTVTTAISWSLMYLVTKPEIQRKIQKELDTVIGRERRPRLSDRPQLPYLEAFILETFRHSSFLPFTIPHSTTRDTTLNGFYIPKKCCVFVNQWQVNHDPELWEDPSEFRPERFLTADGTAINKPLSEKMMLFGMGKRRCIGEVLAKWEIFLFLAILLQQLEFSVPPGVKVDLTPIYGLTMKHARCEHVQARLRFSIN

A further assay has as its system Streptococcus. The assay can be described thus: Group A Streptococcus viability loss, dose response, counter-screen for streptokinase expression inhibitor project, luminescence, BacTiterGlo (AID 1915).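 Further: potency for reduction of bacterial viability or growth.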 It counts as functional, organism-based. On the technique in general: A counterscreen serves to expose hits that act by an unwanted route or on another target.
The target of a further assay is T3, Streptokinase A (Streptococcus pyogenes serotype M1, UniProt P10520).
T3 sequence (P10520 whole entry): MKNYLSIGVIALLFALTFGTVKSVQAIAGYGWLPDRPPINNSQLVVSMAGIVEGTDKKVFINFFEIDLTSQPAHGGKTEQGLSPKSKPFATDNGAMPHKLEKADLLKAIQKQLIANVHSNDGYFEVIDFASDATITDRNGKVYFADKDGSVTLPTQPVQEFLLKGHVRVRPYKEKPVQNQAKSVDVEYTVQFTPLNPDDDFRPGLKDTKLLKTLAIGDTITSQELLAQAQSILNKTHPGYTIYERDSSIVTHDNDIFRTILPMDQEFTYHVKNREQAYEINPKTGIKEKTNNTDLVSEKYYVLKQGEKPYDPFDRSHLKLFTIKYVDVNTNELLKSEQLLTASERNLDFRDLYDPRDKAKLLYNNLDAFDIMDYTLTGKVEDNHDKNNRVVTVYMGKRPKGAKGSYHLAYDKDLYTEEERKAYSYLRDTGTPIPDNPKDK
The assay can be described thus: S. pyogenes streptokinase expression inhibitors, potency, dose response, plasminogen activation absorbance, OD405 (AID 1914).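 Further: secreted streptokinase activity via plasminogen activation per viability signal from cell pellet.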 It counts as functional, Streptococcus pyogenes M1 GAS.

The next assay is described as follows: cells. It counts as functional.
Assay [4] relates to Streptococcus sp. 'group A'. The assay can be described thus: growth inhibition of control SK(-) GAS strain, dose response, counter-screen for streptokinase expression inhibitor project, luminescence, kanamycin, BacTiterGlo, confirmation (AID 1900). It counts as functional, organism-based.
A short description of assay [5]: microbe, parasite or virus in culture. It counts as functional. Conditions: Mycobacterium tuberculosis.
The nature of assay [6]: inhibitors of SNCA 5'UTR-driven reporter translation, confirmation, H4 neuroglioma cells, luminescence (AID 1988). It counts as functional, cell-based.
Assay [7] in a line: Luminescence Cell-Based Dose Response HTS to Identify Inhibitors of 5'UTR Stem-Loop Driven Prion Protein mRNA Translation in H4 Neuroglioblastoma Cells. [Related pubchem assays: 1827 (Project Summary), 1813 (Primary HTS)]. It counts as functional.
Assay [8] is described as follows: inhibitors of firefly luciferase expression or activity, dose response, H4 neuroglioma cells, luminescence (AID 1990). It counts as functional, cell-based.
Another assay deals with Cytochrome P450 2C19 (Homo sapiens, UniProt P33261). The assay can be described thus: Cytochrome panel assay with activity outcomes. Panel member name: p450-cyp2c19 Compounds with AC50 equal or less than 10 uM are considered active. It counts as functional. As to conditions: read-out: AC50.
Chain of Cytochrome P450 2C19 (P33261 whole entry): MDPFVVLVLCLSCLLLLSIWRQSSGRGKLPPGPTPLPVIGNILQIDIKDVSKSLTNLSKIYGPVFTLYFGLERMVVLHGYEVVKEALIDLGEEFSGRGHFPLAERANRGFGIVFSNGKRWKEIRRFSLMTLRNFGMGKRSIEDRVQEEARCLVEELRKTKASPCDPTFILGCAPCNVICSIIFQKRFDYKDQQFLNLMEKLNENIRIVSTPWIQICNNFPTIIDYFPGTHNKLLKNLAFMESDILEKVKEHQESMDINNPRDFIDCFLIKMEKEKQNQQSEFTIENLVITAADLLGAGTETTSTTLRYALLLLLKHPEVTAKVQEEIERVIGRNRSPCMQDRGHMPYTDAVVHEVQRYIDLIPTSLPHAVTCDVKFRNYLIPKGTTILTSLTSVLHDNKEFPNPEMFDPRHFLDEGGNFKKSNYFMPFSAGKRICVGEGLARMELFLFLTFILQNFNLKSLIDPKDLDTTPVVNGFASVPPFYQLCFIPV
In the next assay the target is Cytochrome P450 3A4 (Homo sapiens, UniProt P08684).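 Further: CYP3A4 tested as one member of a cytochrome P450 panel screen.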
Chain of Cytochrome P450 3A4 (P08684 whole entry): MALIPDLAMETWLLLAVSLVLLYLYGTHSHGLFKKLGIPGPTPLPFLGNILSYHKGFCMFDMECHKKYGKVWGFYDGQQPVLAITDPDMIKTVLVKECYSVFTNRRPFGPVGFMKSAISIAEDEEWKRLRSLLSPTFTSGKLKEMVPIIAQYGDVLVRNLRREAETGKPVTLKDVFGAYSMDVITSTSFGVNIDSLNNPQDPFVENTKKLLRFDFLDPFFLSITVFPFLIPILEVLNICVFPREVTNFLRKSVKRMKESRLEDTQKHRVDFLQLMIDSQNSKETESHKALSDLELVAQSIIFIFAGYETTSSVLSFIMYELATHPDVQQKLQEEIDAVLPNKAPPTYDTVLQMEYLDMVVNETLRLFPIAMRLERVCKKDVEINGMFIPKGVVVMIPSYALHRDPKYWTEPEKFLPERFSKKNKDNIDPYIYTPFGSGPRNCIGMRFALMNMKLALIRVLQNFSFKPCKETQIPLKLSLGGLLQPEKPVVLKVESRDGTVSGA
For a further assay, the target named is Cytochrome P450 2D6 (Homo sapiens, UniProt P10635).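 Further: CYP2D6 member of a cytochrome P450 panel assay.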
Chain of Cytochrome P450 2D6 (P10635 whole entry): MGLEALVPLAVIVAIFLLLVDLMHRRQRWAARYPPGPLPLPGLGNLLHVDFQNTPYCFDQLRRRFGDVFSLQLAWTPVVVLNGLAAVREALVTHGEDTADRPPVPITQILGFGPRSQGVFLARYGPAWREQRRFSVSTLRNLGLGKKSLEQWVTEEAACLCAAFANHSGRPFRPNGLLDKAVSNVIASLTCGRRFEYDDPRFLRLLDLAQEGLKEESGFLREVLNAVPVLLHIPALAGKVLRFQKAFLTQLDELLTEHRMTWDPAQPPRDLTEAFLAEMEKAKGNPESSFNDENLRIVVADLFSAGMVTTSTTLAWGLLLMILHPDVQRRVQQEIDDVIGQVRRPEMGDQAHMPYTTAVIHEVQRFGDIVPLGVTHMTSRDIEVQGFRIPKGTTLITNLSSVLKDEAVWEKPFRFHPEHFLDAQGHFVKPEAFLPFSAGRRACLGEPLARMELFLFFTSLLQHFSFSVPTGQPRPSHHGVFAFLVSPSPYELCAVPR
The next assay has as its target Cytochrome P450 2C9 (Homo sapiens, UniProt P11712).

The source made the active and inactive calls.

Chain of Luciferin 4-monooxygenase (P08659 whole entry): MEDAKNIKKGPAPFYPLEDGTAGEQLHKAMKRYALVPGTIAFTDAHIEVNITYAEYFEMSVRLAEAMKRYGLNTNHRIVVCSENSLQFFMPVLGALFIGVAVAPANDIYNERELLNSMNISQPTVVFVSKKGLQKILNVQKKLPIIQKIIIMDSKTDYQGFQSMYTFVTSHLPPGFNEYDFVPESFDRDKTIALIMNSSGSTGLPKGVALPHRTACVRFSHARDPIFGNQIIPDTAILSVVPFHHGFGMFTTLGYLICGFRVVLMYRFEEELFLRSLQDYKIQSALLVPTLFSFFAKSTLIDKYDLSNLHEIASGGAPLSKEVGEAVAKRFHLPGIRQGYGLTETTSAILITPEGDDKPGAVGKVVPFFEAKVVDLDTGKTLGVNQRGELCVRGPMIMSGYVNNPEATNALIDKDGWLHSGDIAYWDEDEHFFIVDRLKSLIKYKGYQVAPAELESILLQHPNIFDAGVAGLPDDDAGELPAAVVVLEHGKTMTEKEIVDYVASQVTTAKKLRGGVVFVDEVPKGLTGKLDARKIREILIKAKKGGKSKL
Chain of Cytochrome P450 2C9 (P11712 whole entry): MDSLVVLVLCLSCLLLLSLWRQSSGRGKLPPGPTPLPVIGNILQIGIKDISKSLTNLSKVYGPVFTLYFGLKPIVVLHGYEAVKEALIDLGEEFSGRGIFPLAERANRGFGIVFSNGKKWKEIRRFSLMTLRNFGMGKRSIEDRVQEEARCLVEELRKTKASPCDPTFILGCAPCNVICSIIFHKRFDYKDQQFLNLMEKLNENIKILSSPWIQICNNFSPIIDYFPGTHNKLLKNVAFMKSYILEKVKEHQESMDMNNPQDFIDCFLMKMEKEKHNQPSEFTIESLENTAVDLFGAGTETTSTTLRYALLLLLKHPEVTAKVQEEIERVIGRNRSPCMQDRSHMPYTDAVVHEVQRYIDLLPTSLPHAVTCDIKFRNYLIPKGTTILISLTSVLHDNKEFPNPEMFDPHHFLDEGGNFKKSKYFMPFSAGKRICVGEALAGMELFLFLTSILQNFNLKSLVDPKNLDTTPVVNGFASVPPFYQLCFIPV

The EC50 is the concentration that produces a half-maximal response. As for `NC(=O)C1(N2CCCCC2)CCN(C(=O)Nc2ccccc2C(F)(F)F)CC1`, the EC50 in [1] and in assay [2] was > 112 µM (not active) in each case.

Take `COc1ccc(-c2cc(C(F)(F)F)nc(SCC(=O)NCCN3CCOCC3)n2)cc1OC`: the EC50 was 47.9 µM (active) in assay [1] and > 112 µM (not active) in assay [2].

For orientation: IC50 means the concentration at which inhibition is half-maximal. `c1ccc2c(C[C@@H]3CNCCN3CC3CCCCC3)cccc2c1`: the IC50 in assay [3] was > 20 µM (inactive).

In general, AC50 refers to the concentration at which the activity in the assay is half-maximal. On to `CN1C[C@H](C(=O)N[C@@]2(C)O[C@@]3(O)[C@H]4CCCN4C(=O)[C@@H](Cc4ccccc4)N3C2=O)C=C2c3cccc4[nH]cc(c34)C[C@@H]21`, for which the AC50 at Cytochrome P450 1A2 was 3.16 µM (inconclusive).

For `CC(C)(C)c1ccc(OCCCC(=O)NC2=NCCS2)cc1`, the EC50 with Streptococcus was > 150 µM (not active); on Streptokinase A, > 150 µM (not active); in assay [4], 19.8 µM (active). For the same compound, the IC50 in “cells” is 20.1 µM (active).

As for `CCN(C[C@H]1N[C@@](Cc2ccccc2)(C(=O)OC)[C@H]2C(=O)N(Cc3ccccc3)C(=O)[C@@H]12)C(=O)Nc1ccc(C(F)(F)F)cc1`, in assay [5], the CC50 was 39.5 µM (active).

Regarding `COc1ccc(C(=O)N2CC3(CC(c4cccc([N+](=O)[O-])c4)=NO3)C[C@H]2C(=O)NCC(N)=O)cc1` (stereo partly drawn), the AC50 at Cytochrome P450 1A2 was 28.2 µM (inconclusive).

Consider `CN(C)C=O.CNC(=O)CSc1nc2nc(C)cc(C)n2n1`, for which the EC50 in assay [1] and in [2] was > 112 µM (not active) in each case.

As to `CCc1cc(C(=O)N2CCCC(CCC(=O)NCc3cccc(OC)c3)C2)no1` (stereo not drawn), the EC50 (in the assay with Streptococcus; on Streptokinase A; in assay [4]) was > 150 µM (not active) each time.

As to `CCCC(/C=C/c1ccc(OC(C)=O)cc1)=C1/c2ccccc2C(=O)N1c1ccccc1`, in assay [5], the CC50 is 12.8 µM (active).

For the compound `CCCCc1ccc(NC(S)=NCCc2ccc(F)cc2)cc1`, the EC50 in the assay on Streptococcus was > 150 µM (not active); on Streptokinase A, 45 µM (active).

Consider `COc1ccccc1/C=C/CN1CCCC(CO)(Cc2cccc(Cl)c2)C1` (stereo not drawn), for which the EC50 in assay [1] and in assay [2] was > 112 µM (not active) throughout.

On to `COc1ccc(C(=O)NC2CCCc3c2cnn3-c2ccccc2F)o1` (stereo not drawn), for which the results for the EC50 in [6], in assay [7] and in [8] were 22.2 µM (active), 18.9 µM (active) and 41 µM (active), respectively.

As to `CCCc1cc(=O)oc2cc(OCC(=O)N3CCc4ccccc43)ccc12`, the EC50 in [1] and in assay [2] was > 112 µM (not active) throughout. Moreover, the concentration at half-maximal activity (AC50) on Cytochrome P450 2C19 was 1 µM (inconclusive).

Turning to `Nc1ncnc2c1ncn2C1CCCC1`, the figures for the AC50 at Cytochrome P450 1A2 and on Cytochrome P450 3A4 were 20 µM (inconclusive) and 0.0398 µM (inconclusive), respectively.

With `CCOCCN1CCN(c2c(CC)c(C)nc3cc(-c4cc(OC)cc(OC)c4)nn23)CC1`, in assay [5], the CC50 was > 40 µM (active).

As to `C=C(C)COc1ccc(-c2n[nH]c(C)c2-c2ccccc2)c(O)c1`, the EC50 at Streptokinase A is 7.78 µM (active).

On to `CCc1ccccc1NC(=O)C1C(c2ccccc2)C1(Cl)Cl` (stereo not drawn), for which the AC50 at Cytochrome P450 2D6 was 11.2 µM (inconclusive); on Cytochrome P450 1A2, 17.8 µM (inconclusive); on Cytochrome P450 2C9 it was 20 µM (inconclusive).

With `CC1(C)CC(=O)C2=C(C1)N(c1ccccc1)C(=O)CC2c1ccsc1` (stereo not drawn), the EC50 in [1] and in assay [2] was > 112 µM (not active) each time.

Turning to `C#CCOCCOCCOCCNc1nc(N2CCOCC2)nc(N2CCN(C(=O)CCCCCCCCCCNC(=O)[C@H]([C@@H](C)CC)n3cc(CCCCN=C(N)N)nn3)CC2)n1`, in assay [3], the IC50 is > 20 µM (inactive).

`Cc1ccc(-c2csc3ncnc(Nc4ccc(N5CCOCC5)cc4)c23)cc1`: in assay [5], the CC50 was > 40 µM (active).

Turning to `COCCn1c(=O)c(-c2cn(C)c3ccccc23)nc2cnc(N3CCNCC3)nc21`, the AC50 at Cytochrome P450 1A2 was 12.6 µM (inconclusive).

For the compound `Clc1cccc(-c2cc3nc4c(c(NCc5ccco5)n3n2)CCCC4)c1`, the CC50 in assay [5] is 23.7 µM (active).

Take `O=C(Nc1cccnc1)c1cc(-c2ccc(Cl)c(Cl)c2)on1`: the EC50 in [1] and in assay [2] was > 112 µM (not active) throughout.

Regarding `CCn1cc([N+](=O)[O-])c(C(=O)N2N=C(c3ccc4ccccc4c3)CC2c2ccccc2O)n1` (stereo not drawn), the CC50 in [5] is 33.1 µM (active).

Turning to `COc1ccc(C(=O)Nc2ccc(Cl)cc2C(=O)NCCN2CCOCC2)cc1`, at Cytochrome P450 1A2, the AC50 is 22.4 µM (inconclusive).

Take `O=C(NCc1ccccc1)C(c1cccnc1)N(C(=O)c1ccccn1)c1ccccc1F` (stereo not drawn): the EC50 in assay [1] and in [2] was > 112 µM (not active) in each case.

Consider `CS(=O)(=O)N1CCC[C@@]2(CCN(c3ccccc3)C2)C1`, for which the AC50 was 31.6 µM (inconclusive) at Cytochrome P450 1A2 and 25.1 µM (inconclusive) on Cytochrome P450 2C9.

With `COc1cc2c(C(=O)N3CCN(c4cccc(Cl)c4)CC3)cn(CC(C)C)c(=O)c2cc1OC`, in [5], the CC50 was > 40 µM (active).

Regarding `C[N+](C)(CCCOc1ccccc1)c1ccccc1.O=C([O-])c1cc2ccccc2cc1O`, at Cytochrome P450 1A2, the AC50 was 12.6 µM (inconclusive).

With `COc1ccc(Nc2cc3n(c(=O)n2)CCc2cc(OC)c(OC)cc2-3)cc1`, the EC50 in assay [1] is 4.68 µM (active); in assay [2] it was > 112 µM (not active).

Consider `COc1ccc(Nc2cc3n(c(=O)n2)CCc2cc(OC)c(OC)cc2-3)c(C)c1`, for which the EC50 was 35.6 µM (active) in assay [6]; 0.987 µM (active) in [1]; > 112 µM (not active) in assay [2]; 41.3 µM (active) in assay [7]; 17.3 µM (active) in assay [8].

With `COc1cc2sc(-c3ccc(S(C)(=O)=O)cc3)c(C(=O)NCCCCO)c2cc1OC`, the IC50 in assay [3] is > 20 µM (inactive).

Consider `C/C1=N/NC(=S)NCCCN2CCN(CCCNC(=S)N/N=C(/C)C=NNC(=S)NCCCN3CCN(CCCNC(=S)NN=C1)CC3)CC2`, for which the AC50 on Cytochrome P450 1A2 is 3.16 µM (inconclusive).

With `O=C(O)C=Cc1ccc(Cn2ccnc2)cc1`, at Cytochrome P450 1A2, the concentration at half-maximal activity (AC50) was 31.6 µM (inconclusive).

Take `CCOc1ccccc1Nc1cc2n(c(=O)n1)CCc1cc(OC)c(OC)cc1-2`: the EC50 in assay [6] is 9.81 µM (active); in assay [1] it was 1.23 µM (active); in assay [2], > 112 µM (not active); in assay [7] it was 30.7 µM (active); in assay [8], 47.8 µM (active).

As for `CC[N+](CC)(CCCNC1=CC(=O)C(NCCC[N+](CC)(CC)Cc2ccccc2)=CC1=O)Cc1ccccc1` [BENZOQUINONIUM], the AC50 on Cytochrome P450 1A2 is 31.6 µM (inconclusive).

As to `Nc1ccn([C@@H]2O[C@H](CO)[C@@H](O)C2O)c(=O)n1` (stereo partly drawn) [CYTARABINE], the CC50 in assay [5] is 1.8 µM (active).
